According to patent US20260055097A9, “NRF2 PROTEIN DEGRADERS” (Ganymede Oncology, Inc., priority 2022, published 2026):

How the values were obtained:
A549 = experiment: Cancer cell viability, A549 (CellTiter-Glo); type: cell-based; details: Homo sapiens, 72 h, A549 cells, 3 days, read-out: Cellular IC50 (μM) A549
Protocol: Representative Compounds of the Disclosure were tested in A549 (Vendor: ATCC; Cat #CCL-185; Description: lung, carcinoma) and/or LK-2 (Vendor: Riken; Cat #RCB1970; Description: lung, squamous cell carcinoma) cellular viability assays according to the following general protocol. • 1. Observed the cells under microscope. • 2. Aspirated the media and added 5 mL trypsin and incubate for 3 mins. • 3. Added 10 mL fresh media and harvested all the cells in to 15 mL tubes. • 4. Centrifuged the cells at 1000 rpm for 5 mins. • 5. Re-suspended the cells with 11 mL media and took 1 mL to determine the cell number and viability. • 6. Prepared cells suspension at 20 K/mL (A549) or 35 K/mL (LK-2) • 7. Seeded the cells into 96-well plate and incubated for overnight. • 8. […] After 3 days, took out the plates from the incubator and observed the cells under microscope. • 10. Passed a film at the bottom of the plates. • 11. Equilibrated the plate and its contents at room temperature for approximately 30 minutes. • 12. Thawed the CellTiter-Glo® Buffer and equilibrated to room temperature prior to use. • 13. Equilibrated the lyophilized CellTiter-Glo® Substrate to room temperature prior to use. • 14. Transferred 100 ml of CellTiter-Glo® Buffer into the amber bottle containing CellTiter-Glo® Substrate to reconstituted the lyophilized enzyme/substrate mixture. • 15. Mixed by gently vortexing, swirling or inverting the contents to obtain a homogeneous solution. • 16. Added 100 μL CellTiter-Glo® Reagent into each well • 17. Mixed contents for 15 minutes on an orbital shaker to induce cell lysis. • 18. Recorded luminescence with EnSpire machine. • 19. Passed the raw data into the file and analyzed the data with XLfit software.

LK-2 = experiment: Cancer cell viability, LK-2 (CellTiter-Glo); type: cell-based; details: Homo sapiens, LK-2, 72 h, LK-2 cells, 3 days, read-out: Cellular IC50 (μM) LK-2
Protocol: Representative Compounds of the Disclosure were tested in A549 (Vendor: ATCC; Cat #CCL-185; Description: lung, carcinoma) and/or LK-2 (Vendor: Riken; Cat #RCB1970; Description: lung, squamous cell carcinoma) cellular viability assays according to the following general protocol. • 1. Observed the cells under microscope. • 2. Aspirated the media and added 5 mL trypsin and incubate for 3 mins. • 3. Added 10 mL fresh media and harvested all the cells in to 15 mL tubes. • 4. Centrifuged the cells at 1000 rpm for 5 mins. • 5. Re-suspended the cells with 11 mL media and took 1 mL to determine the cell number and viability. • 6. Prepared cells suspension at 20 K/mL (A549) or 35 K/mL (LK-2) • 7. Seeded the cells into 96-well plate and incubated for overnight. • 8. Added compounds into each well with a HPD300 machine (nine three-fold dilutions typically starting at 30 µM final concentration) and incubated for 3 days. • 9. After 3 days, took out the plates from the incubator and observed the cells under microscope. • 10. Passed a film at the bottom of the plates. • 11. Equilibrated the plate and its contents at room temperature for approximately 30 minutes. • 12. Thawed the CellTiter-Glo® Buffer and equilibrated to room temperature prior to use. • 13. Equilibrated the lyophilized CellTiter-Glo® Substrate to room temperature prior to use. • 14. Transferred 100 ml of CellTiter-Glo® Buffer into the amber bottle containing CellTiter-Glo® Substrate to reconstituted the lyophilized enzyme/substrate mixture. • 15. Mixed by gently vortexing, swirling or inverting the contents to obtain a homogeneous solution. • 16. Added 100 μL CellTiter-Glo® Reagent into each well • 17. Mixed contents for 15 minutes on an orbital shaker to induce cell lysis. • 18. Recorded luminescence with EnSpire machine. • 19. Passed the raw data into the file and analyzed the data with XLfit software.

SMILES | IC50 (A549) [µM] | IC50 (LK-2) [µM]
Cc1sc(NC(=O)Cc2cccc(OCCOCCNc3ccc4c(c3)C(=O)N(C3CCC(=O)NC3=O)C4=O)c2)nc1-c1ccc2c(c1)CCN2C(=O)C1CC1 (stereo not drawn) [Cpd. No. 22, N-(4-(1-(cyclopropanecarbonyl)indolin-5-yl)-5-methylthiazol-2-yl)-2-(3-(2-(2-((2-(2,6-dioxopiperidin-3-yl)-1,3-dioxoisoindolin-5-yl)amino)ethoxy)ethoxy)phenyl) acetamide] | 0.3 | 0.06
Cc1ccccc1C(=O)N1CCc2cc(-c3nc(NC(=O)Cc4cccc(OCCCCN5CCN(c6cccc7c6C(=O)N(C6CCC(=O)NC6=O)C7=O)CC5)c4)sc3C)ccc21 (stereo not drawn) [Cpd. No. 33, 2-(3-(4-(4-(2-(2,6-dioxopiperidin-3-yl)-1,3-dioxoisoindolin-4-yl)piperazin-1-yl)butoxy)phenyl)-N-(5-methyl-4-(1-(2-methylbenzoyl)indolin-5-yl)thiazol-2-yl)acetamide] | > 30 | > 30
Cc1ccccc1C(=O)N1CCc2cc(-c3nc(NC(=O)Cc4cccc(OCCOCCOCCOc5ccc6c(c5)C(=O)N(C5CCC(=O)NC5=O)C6=O)c4)sc3C)ccc21 (stereo not drawn) [Cpd. No. 19, 2-(3-(2-(2-(2-((2-(2,6-dioxopiperidin-3-yl)-1,3-dioxoisoindolin-5-yl)oxy)ethoxy)ethoxy)ethoxy)phenyl)-N-(5-methyl-4-(1-(2-methylbenzoyl)indolin-5-yl)thiazol-2-yl)acetamide] | 11 | 2.5
Cc1sc(C(=O)NCc2cccc(OCCOCCNc3ccc4c(c3)C(=O)N(C3CCC(=O)NC3=O)C4=O)c2)nc1-c1ccc2c(c1)CCN2C(=O)C1CC1 (stereo not drawn) [Cpd. No. 38, 4-(1-(cyclopropanecarbonyl)indolin-5-yl)-N-(3-(2-(2-((2-(2,6-dioxopiperidin-3-yl)-1,3-dioxoisoindolin-5-yl)amino)ethoxy)ethoxy)benzyl)-5-methylthiazole-2-carboxamide] | 0.2 | 0.04
Cc1ccccc1C(=O)N1CCc2cc(-c3nc(NC(=O)Cc4cccc(OCCOCCOCCNc5ccc6c(c5)C(=O)N(C5CCC(=O)NC5=O)C6=O)c4)sc3C)ccc21 (stereo not drawn) [Cpd. No. 21, 2-(3-(2-(2-(2-((2-(2,6-dioxopiperidin-3-yl)-1,3-dioxoisoindolin-5-yl)amino)ethoxy)ethoxy)ethoxy)phenyl)-N-(5-methyl-4-(1-(2-methylbenzoyl)indolin-5-yl)thiazol-2-yl)acetamide] | > 30 | > 30
Cc1ccccc1C(=O)N1CCc2cc(-c3nc(NC(=O)Cc4cccc(OCCCCN5CCN(c6ccc7c(c6)C(=O)N(C6CCC(=O)NC6=O)C7=O)CC5)c4)sc3C)ccc21 (stereo not drawn) [Cpd. No. 26, 2-(3-(4-(4-(2-(2,6-dioxopiperidin-3-yl)-1,3-dioxoisoindolin-5-yl)piperazin-1-yl)butoxy)phenyl)-N-(5-methyl-4-(1-(2-methylbenzoyl)indolin-5-yl)thiazol-2-yl)acetamide] | > 30 | 0.8
